pKi: −log10 of the molar value. Read-outs that look alike come from different tables or passages of the source.
Key:
[1] = tested on: oxotremorine-induced body tremor; experiment: Oxotremorine antagonist assay (body tremor); assay type: in vivo, mice
Protocol: Oxotremorine antagonist assays were performed on groups of six mice weighing 18-22 g. Each was dosed intraperitoneally with the test compound prepared in 0.25% methylcellulose and were placed in individual cages. Twenty minutes later the mice were injected subcutaneously with 0.5 mg/kg of oxotremorine dissolved in saline. Ten minutes later the mice were scored for body tremor. Doses of the compound under study began at 100 mg/kg and were decreased at a 0.5 log interval until no responders were obtained.

CNS cholinergic receptor [2] = experiment: CNS cholinergic receptor binding, oxotremorine M ligand; conditions: tritiated oxotremorine M; read-out: CNS Cholinergic Receptor Binding Assays K1 Oxotremorine
CNS cholinergic receptor [3] = conditions: read-out: CNS Cholinergic Receptor Binding Assays K1 QNB
[4] = Mus musculus, ip; read-out: Oxot. Antagonist Tremor (ED50)
[5] = tritiated quinuclidine benzylate (QNB)
[6] = Mus musculus, ip, read-out: Oxot. Antagonist Tremor (ED50)

Row | SMILES | ED50 [1, 4] | pKi (CNS cholinergic receptor [2]) | pKi (CNS cholinergic receptor [3]; [5]) | ED50 [1, 6] | pKi (CNS cholinergic receptor [3])
1 | CCN(CC)CC#CCn1ccn(C)c1=O [Compound 4, 1-[4-(Diethylamino)-2-butynyl]-1,3-dihydro-3-methyl-2H-imidazol-2-one] | > 100 mg/kg | 6.25 | < 5.00 |  | 
2 | Cn1ccn(CC#CCn2ccnc2)c1=O [Compound 6, 1,3-Dihydro-1-[4-(1H-imidazol-1-yl)-2-butynyl]-3-methyl-2H-imidazol-2-one] | > 100 mg/kg | 7.46 | < 5.00 |  | 
3 | Cc1cncn1CC#CCn1ccn(C)c1=O [Compound 7, 1,3-Dihydro-1-methyl-3-[4-(5-methyl-1H-imidazol-1-yl)-2-butynyl]-2H-imidazol-2-one] | > 100 mg/kg | 7.41 | 6.21 |  | 
4 | CC(C#CCN1CCCC1)N1CCN(C)C1=O (centres unmarked) [Compound 22, 1-Methyl-3-[1-methyl-4-(1-pyrrolidinyl)-2-butynyl]-2-imidazolidinone] |  |  |  | 37 mg/kg | 
5 | CCN(CC)CC#CCN1CCNC1=O [Compound 23, 1-[4-(Diethylamino)-2-butynyl]-2-imidazolidinone] | > 100 mg/kg | 6.37 | < 5.00 |  | 
6 | CCN(CC)CC#CCN1CCN(C)C1=O [Compound 24, 1-[4-(Diethylamino)-2-butynyl]-3-methyl-2-imidazolidinone] | > 100 mg/kg | 6.88 | < 5.00 |  | 
7 | O=C1NCCN1CC#CCn1ccnc1 [Compound 25, 1-[4-(1H-Imidazol-1-yl)-2-butynyl]-2-imidazolidinone] | > 100 mg/kg | 7.21 | < 5.00 |  | 
8 | CC(=O)N1CCN(CC#CCn2cncc2C)C1=O [Compound 26, 1-Acetyl-3-[4-(5-methyl-1H-imidazol-1-yl)-2-butynyl]-2-imidazolidinone] | 45 mg/kg | 6.83 | < 5.00 |  | 
9 | Cc1cncn1CC#CCN1CCNC1=O [Compound 27, 1-[4-(5-Methyl-1H-imidazol-1-yl)-2-butynyl]-2-imidazolidinone] | > 100 mg/kg | 6.86 | < 5.00 |  | 
10 | CN1CCN(CC#CCn2ccnc2)C1=O [Compound 28, 1-[4-(1H-Imidazol-1-yl)-2-butynyl]-3-methyl-2-imidazolidinone] |  | 8.70 |  | > 100 mg/kg | 5.73
11 | Cc1cncn1CC#CCN1CCN(C)C1=O [Compound 29, 1-Methyl-3-[4-(5-methyl-1H-imidazol-1-yl)-2-butynyl]-2-imidazolidinone] | > 100 mg/kg | 8.05 | 6.42 |  | 
12 | CCN1CCN(CC#CCN2CCCC2)C1=O [Compound 30, 1-Ethyl-3-[4-(1-pyrrolidinyl)-2-butynyl]-2-imidazolidinone] | > 30 mg/kg | 6.16 | < 5.00 |  | 
13 | CC(C#CCN1CCCC1)N1CCNC1=O (centres unmarked) [Compound 31, 1-[1-Methyl-4-(1-pyrrolidinyl)-2-butynyl]-2-imidazolidinone] | > 30 mg/kg | 7.82 | 6.87 |  | 
14 | CC(C#CCN(C)C)N1CCN(C)C1=O (centres unmarked) [Compound 32, 1-[4-(Dimethylamino)-1-methyl-2-butynyl]-3-methyl-2-imidazolidinone] | > 100 mg/kg | 7.48 | < 5.00 |  | 
15 | CN(C)CC#CCN1CCNC1=O [Compound 33, 1-[4-(Dimethylamino)-2-butynyl]-2-imidazolidinone] | > 100 mg/kg | 7.37 | < 5.00 |  | 
16 | CCN(CC)CC#CC(C)N1CCN(C)C1=O (centres unmarked) [Compound 34, 1-[4-(Diethylamino)-1-methyl-2-butynyl]-3-methyl-2-imidazolidinone] | > 100 mg/kg | 6.78 | 5.70 |  | 
17 | CN(C)CC#CCN1C(=O)CN(C)C1=O [Compound 41, 3-[4-(Dimethylamino)-2-butynyl]-1-methyl-2,4-imidazolidinedione] |  | 7.07 | < 5.00 |  | 
18 | C(#C[C@@H]1CCCN1)CN1CCCC1 [Compound 50B, (S)-1-[3-(2-pyrrolidinyl)-2-propynyl]pyrrolidine] |  | 5.89 | < 5.00 |  | 
